Assay results taken from ChEMBL document CHEMBL5291721, “A preclinical secondary pharmacology resource illuminates target-adverse drug reaction associations of marketed drugs” (Nat Commun, 2023).

Assays:
[1] = molecular target: T1, Muscarinic acetylcholine receptor M1 (Homo sapiens, UniProt P11229); format: functional, cell-based
T1 sequence (P11229 whole entry): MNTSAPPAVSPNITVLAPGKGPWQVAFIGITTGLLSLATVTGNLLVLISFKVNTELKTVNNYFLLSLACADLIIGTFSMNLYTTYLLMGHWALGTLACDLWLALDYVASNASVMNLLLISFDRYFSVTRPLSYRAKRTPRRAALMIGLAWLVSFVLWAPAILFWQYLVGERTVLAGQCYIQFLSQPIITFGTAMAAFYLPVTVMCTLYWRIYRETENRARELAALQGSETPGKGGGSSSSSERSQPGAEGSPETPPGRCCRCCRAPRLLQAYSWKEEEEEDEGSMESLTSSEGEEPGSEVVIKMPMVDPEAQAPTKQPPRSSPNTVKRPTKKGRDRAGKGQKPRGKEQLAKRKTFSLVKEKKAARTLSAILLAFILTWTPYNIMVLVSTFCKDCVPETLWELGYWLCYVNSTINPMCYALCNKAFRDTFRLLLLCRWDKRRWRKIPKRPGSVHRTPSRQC

[2] = molecular target: Mu-type opioid receptor (Homo sapiens, UniProt P35372)
Mu-type opioid receptor, sequence (P35372 whole entry): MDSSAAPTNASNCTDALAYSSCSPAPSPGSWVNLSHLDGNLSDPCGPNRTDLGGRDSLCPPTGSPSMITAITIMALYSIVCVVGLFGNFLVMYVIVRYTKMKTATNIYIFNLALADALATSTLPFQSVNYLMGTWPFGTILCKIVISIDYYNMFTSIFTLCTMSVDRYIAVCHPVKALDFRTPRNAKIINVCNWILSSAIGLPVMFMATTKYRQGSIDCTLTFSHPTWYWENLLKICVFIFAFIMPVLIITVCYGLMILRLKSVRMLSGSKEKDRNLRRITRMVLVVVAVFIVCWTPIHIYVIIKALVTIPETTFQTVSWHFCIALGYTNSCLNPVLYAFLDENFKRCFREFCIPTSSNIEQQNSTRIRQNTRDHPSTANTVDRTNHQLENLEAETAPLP

[3] = molecular target: Sodium-dependent serotonin transporter (Homo sapiens, UniProt P31645)
Sodium-dependent serotonin transporter, sequence (P31645 whole entry): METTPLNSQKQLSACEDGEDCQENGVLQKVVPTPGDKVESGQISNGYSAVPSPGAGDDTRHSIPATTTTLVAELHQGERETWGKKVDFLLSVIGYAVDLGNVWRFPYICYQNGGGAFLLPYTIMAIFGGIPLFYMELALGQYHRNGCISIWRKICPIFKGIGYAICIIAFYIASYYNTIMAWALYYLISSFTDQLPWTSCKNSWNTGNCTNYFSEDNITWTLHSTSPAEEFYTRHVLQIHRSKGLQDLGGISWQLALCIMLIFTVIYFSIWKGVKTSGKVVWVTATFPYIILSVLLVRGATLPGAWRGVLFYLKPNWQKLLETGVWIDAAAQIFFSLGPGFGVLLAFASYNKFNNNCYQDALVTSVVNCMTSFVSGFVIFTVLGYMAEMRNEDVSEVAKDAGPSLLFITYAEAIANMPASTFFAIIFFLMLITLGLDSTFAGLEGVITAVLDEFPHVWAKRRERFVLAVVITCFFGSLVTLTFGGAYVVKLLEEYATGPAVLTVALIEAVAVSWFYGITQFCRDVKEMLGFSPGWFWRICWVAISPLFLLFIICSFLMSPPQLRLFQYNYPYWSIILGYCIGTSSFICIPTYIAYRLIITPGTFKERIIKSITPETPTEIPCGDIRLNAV

[4] = molecular target: Receptor tyrosine-protein kinase erbB-2 (Homo sapiens, UniProt P04626); format: functional
[5] = molecular target: Histamine H1 receptor (Homo sapiens, UniProt P35367); format: functional, cell-based
Histamine H1 receptor, sequence (P35367 whole entry): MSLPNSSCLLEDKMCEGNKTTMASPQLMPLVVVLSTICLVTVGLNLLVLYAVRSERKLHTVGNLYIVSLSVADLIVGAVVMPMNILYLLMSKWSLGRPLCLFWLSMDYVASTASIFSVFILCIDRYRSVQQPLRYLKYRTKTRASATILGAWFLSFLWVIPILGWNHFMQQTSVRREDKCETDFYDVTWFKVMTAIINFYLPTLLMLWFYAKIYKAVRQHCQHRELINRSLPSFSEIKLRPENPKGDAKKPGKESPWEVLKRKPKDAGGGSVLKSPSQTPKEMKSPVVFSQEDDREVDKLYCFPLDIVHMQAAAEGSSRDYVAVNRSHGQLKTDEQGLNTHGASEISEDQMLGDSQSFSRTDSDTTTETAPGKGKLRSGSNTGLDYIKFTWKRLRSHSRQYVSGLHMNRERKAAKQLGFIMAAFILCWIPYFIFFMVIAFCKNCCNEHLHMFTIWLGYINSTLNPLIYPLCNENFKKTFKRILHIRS

[6] = molecular target: T2, Estrogen receptor (Homo sapiens, UniProt P03372)
T2 sequence (P03372 whole entry): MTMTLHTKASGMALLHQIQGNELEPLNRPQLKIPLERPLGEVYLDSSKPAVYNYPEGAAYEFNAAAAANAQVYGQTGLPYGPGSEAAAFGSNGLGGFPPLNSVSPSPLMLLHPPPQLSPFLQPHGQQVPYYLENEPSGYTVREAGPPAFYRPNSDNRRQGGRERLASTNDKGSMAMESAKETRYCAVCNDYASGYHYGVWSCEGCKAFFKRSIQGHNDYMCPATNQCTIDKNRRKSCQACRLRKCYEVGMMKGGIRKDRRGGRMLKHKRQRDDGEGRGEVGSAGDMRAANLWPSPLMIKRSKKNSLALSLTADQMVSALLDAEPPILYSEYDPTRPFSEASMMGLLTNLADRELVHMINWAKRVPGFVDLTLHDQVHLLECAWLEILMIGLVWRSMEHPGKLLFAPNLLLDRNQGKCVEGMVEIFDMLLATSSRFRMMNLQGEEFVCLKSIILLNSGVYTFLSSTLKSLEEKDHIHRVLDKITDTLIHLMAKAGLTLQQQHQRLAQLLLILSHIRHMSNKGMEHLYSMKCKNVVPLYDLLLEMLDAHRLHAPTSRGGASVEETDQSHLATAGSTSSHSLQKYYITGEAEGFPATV

[7] = molecular target: Gamma-aminobutyric acid receptor subunit alpha-1/alpha-2/beta-2/gamma-2 (Homo sapiens, UniProt P14867+P47870+P18507+P47869); format: functional, cell-based
Gamma-aminobutyric acid receptor subunit alpha-1/alpha-2/beta-2/gamma-2, sequence (P14867 whole entry): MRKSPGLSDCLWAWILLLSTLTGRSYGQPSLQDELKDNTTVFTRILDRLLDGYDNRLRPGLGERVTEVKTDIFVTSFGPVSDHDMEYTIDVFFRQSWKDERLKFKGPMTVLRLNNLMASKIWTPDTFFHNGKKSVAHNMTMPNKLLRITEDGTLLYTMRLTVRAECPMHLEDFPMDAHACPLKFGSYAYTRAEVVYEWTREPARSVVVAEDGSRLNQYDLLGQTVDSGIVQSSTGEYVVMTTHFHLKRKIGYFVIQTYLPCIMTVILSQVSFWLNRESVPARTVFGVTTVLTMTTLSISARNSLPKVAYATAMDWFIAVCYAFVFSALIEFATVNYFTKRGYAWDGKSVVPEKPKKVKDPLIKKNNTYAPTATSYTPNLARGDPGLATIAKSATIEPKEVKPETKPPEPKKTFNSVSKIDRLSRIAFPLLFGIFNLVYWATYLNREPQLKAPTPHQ
Gamma-aminobutyric acid receptor subunit alpha-1/alpha-2/beta-2/gamma-2, sequence (P47870 whole entry): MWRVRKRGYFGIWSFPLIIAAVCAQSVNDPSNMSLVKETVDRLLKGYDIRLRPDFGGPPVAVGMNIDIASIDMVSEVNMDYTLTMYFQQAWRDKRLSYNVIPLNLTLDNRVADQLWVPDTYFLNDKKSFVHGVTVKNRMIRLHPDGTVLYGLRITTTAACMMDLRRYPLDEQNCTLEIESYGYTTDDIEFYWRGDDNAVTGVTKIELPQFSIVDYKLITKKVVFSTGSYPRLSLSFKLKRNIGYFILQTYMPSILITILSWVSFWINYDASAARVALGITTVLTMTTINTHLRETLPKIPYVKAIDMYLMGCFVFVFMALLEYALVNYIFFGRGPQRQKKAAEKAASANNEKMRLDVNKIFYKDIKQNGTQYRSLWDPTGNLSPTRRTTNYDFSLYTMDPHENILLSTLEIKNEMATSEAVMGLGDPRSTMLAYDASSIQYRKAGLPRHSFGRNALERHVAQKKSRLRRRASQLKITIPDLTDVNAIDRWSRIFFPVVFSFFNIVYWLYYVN
Gamma-aminobutyric acid receptor subunit alpha-1/alpha-2/beta-2/gamma-2, sequence (P18507 whole entry): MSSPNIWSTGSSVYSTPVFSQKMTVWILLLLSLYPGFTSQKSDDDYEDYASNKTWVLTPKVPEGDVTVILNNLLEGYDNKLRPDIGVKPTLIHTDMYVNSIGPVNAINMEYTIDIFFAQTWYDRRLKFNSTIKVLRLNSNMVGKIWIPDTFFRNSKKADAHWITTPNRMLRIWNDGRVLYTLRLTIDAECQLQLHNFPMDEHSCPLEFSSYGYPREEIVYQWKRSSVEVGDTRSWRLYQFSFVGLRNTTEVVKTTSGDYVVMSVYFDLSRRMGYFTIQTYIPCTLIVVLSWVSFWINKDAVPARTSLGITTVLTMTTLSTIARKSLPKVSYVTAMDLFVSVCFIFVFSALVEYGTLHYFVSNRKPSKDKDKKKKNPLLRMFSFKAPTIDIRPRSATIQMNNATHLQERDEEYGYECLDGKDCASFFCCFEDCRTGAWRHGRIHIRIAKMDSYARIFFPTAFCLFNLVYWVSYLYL
Gamma-aminobutyric acid receptor subunit alpha-1/alpha-2/beta-2/gamma-2, sequence (P47869 whole entry): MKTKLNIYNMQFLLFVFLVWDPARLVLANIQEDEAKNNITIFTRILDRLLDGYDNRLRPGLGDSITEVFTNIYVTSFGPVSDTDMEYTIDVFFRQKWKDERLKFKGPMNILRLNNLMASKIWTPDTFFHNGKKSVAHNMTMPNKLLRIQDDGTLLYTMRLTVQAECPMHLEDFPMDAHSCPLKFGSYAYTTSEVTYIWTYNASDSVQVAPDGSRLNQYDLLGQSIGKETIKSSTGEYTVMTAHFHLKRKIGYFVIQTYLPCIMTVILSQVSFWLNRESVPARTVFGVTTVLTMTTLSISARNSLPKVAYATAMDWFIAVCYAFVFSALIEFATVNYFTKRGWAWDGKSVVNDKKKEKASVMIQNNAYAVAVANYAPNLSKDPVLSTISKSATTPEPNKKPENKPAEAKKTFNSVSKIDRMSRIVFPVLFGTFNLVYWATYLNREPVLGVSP

[8] = molecular target: Hydroxycarboxylic acid receptor 2 (Homo sapiens, UniProt Q8TDS4)
Hydroxycarboxylic acid receptor 2, sequence (Q8TDS4 whole entry): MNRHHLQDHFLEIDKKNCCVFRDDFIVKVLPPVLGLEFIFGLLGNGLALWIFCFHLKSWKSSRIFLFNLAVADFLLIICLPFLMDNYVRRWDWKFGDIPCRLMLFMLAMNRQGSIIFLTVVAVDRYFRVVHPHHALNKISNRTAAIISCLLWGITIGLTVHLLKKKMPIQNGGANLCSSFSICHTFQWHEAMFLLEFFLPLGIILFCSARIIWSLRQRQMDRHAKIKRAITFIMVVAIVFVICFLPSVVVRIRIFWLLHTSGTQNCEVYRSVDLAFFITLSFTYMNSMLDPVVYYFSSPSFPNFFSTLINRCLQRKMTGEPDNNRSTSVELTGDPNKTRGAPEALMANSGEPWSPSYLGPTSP

[9] = molecular target: Cannabinoid receptor 1 (Homo sapiens, UniProt P21554); format: functional
Cannabinoid receptor 1, sequence (P21554 whole entry): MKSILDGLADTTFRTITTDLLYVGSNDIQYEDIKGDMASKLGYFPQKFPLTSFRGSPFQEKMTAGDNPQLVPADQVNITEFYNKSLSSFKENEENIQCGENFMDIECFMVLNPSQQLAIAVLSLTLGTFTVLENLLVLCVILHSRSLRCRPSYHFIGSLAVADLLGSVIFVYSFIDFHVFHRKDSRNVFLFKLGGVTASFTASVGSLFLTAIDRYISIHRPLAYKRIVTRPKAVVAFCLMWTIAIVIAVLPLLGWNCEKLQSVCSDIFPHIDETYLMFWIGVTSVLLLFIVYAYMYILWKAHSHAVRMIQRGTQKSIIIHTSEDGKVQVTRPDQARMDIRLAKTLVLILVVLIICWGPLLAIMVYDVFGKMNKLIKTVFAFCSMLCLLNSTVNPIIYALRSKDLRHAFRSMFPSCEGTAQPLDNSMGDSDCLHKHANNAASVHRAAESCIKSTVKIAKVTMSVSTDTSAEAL
Further: assay procedure not described here.

Compound: CO[C@]12C[C@@H](COC(=O)c3cncc(Br)c3)CN(C)[C@@H]1Cc1cn(C)c3cccc2c13 [NICERGOLINE]
- AC50 [1]: > 30 µM
- AC50 [2]: 2.38 µM
- AC50 [3]: 7.26 µM

Compound: CC(CC1c2ccccc2CCc2ccccc21)CN(C)C (centres undefined) [BUTRIPTYLINE]
- AC50 [4]: > 30 µM

Compound: NC(=O)CN1CC(O)CC1=O (centres undefined) [OXIRACETAM]
- AC50 [5]: > 30 µM

Compound: THIMEROSAL
- AC50 [6]: > 30 µM
- AC50 [7]: > 30 µM

Compound: COc1cccc(C2(O)CCCCC2CN(C)C)c1 (centres undefined) [TRAMADOL]
- AC50 [8]: > 10 µM

Compound: Cc1c(OCC(F)(F)F)ccnc1C[S+]([O-])c1nc2ccccc2[nH]1 (centres undefined) [LANSOPRAZOLE]
- AC50 [9]: > 10 µM
